Results reported in publication PMC11167047 (Cell Death Discovery, 2024).

Key:
[1] = system: CLL17 chronic lymphocytic leukemia cells; conditions: read-out: IC50 (CLL17); primary patient cells, 24 h
Description: (§2) For chronic lymphocytic leukemia, mononuclear cells were isolated from peripheral blood using a Ficoll gradient (GE Healthcare). Primary cells from other lymphoma entities were isolated as previously described [80]. All cells were cryopreserved after isolation and thawed as previously described [81].
(§3) The resazurin reduction assay, which is also known as AlamarBlue® assay, was used for the determination of cell viability in all cytotoxicity determinations shown in the present work, as previously described [22]. Briefly, cells were seeded at a specific density depending on the incubation time (24 h: 1 × 10^6 cells/ml) in a 96-well plate and incubated with increasing compound concentrations (0.01–30 µM). After the specified treatment time, resazurin (Sigma, #R7017) was added to a final concentration of 40 µM. […] The viability of control cells was set to 100% and all other values were normalized to the control condition, the dose-response curves were then fitted with Prism v7.01 (GraphPad software, La Jolla, CA, USA).

[2] = system: FL169 follicular lymphoma cells; conditions: read-out: IC50 (FL169); primary patient cells, 24 h
Description: as §2, §3

ACVR1 = biological target: T1, ACVR1 (Homo sapiens, UniProt Q04771); assay: kinome screen (33PanQinase); type: biochemical
T1 construct: purchased Reaction Biology Europe GmbH (formerly ProQinase)
T1 sequence (Q04771 21-509): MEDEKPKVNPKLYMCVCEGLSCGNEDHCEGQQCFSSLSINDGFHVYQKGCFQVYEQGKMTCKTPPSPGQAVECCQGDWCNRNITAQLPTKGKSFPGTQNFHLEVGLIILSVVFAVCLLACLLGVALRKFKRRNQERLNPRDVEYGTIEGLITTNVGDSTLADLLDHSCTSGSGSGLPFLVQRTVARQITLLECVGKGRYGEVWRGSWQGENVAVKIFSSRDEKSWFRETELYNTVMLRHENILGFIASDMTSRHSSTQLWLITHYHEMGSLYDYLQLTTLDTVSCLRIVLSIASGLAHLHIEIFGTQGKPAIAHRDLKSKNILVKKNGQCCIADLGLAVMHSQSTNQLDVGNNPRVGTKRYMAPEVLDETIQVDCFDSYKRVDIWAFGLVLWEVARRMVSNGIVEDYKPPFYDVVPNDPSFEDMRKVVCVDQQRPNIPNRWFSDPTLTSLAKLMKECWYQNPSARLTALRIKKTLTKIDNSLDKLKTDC
Description: (§1) The Kinome Screening was performed by Reaction Biology Europe GmbH (http://reactionbiology.com; Freiburg i. Br., Germany).

WNK3 = biological target: T2, WNK3 (Homo sapiens, UniProt Q9BYP7); assay: kinome screen (33PanQinase); type: biochemical
T2 construct: purchased Reaction Biology Europe GmbH (formerly ProQinase)
Description: as §1

WNK2 = biological target: T3, WNK2 (Homo sapiens, UniProt Q9Y3S1); assay: kinome screen (33PanQinase); type: biochemical
T3 construct: purchased Reaction Biology Europe GmbH (formerly ProQinase)
Description: as §1

PAK7 = biological target: T4, PAK7 (Homo sapiens, UniProt Q9P286); assay: kinome screen (33PanQinase); type: biochemical
T4 construct: purchased Reaction Biology Europe GmbH (formerly ProQinase)
Description: as §1

CK1γ1 = biological target: T5, CK1γ1 (Homo sapiens, UniProt Q9HCP0); assay: kinome screen (33PanQinase); type: biochemical
T5 construct: purchased Reaction Biology Europe GmbH (formerly ProQinase)
Description: as §1

SRPK1 = biological target: T6, SRPK1 (Homo sapiens, UniProt Q96SB4); assay: kinome screen (33PanQinase); type: biochemical
T6 construct: purchased Reaction Biology Europe GmbH (formerly ProQinase)
Description: as §1

GSG2 = biological target: T7, GSG2 (Homo sapiens, UniProt Q8TF76); assay: kinome screen (33PanQinase); type: biochemical
T7 construct: purchased Reaction Biology Europe GmbH (formerly ProQinase)
T7 sequence (Q8TF76 1-798): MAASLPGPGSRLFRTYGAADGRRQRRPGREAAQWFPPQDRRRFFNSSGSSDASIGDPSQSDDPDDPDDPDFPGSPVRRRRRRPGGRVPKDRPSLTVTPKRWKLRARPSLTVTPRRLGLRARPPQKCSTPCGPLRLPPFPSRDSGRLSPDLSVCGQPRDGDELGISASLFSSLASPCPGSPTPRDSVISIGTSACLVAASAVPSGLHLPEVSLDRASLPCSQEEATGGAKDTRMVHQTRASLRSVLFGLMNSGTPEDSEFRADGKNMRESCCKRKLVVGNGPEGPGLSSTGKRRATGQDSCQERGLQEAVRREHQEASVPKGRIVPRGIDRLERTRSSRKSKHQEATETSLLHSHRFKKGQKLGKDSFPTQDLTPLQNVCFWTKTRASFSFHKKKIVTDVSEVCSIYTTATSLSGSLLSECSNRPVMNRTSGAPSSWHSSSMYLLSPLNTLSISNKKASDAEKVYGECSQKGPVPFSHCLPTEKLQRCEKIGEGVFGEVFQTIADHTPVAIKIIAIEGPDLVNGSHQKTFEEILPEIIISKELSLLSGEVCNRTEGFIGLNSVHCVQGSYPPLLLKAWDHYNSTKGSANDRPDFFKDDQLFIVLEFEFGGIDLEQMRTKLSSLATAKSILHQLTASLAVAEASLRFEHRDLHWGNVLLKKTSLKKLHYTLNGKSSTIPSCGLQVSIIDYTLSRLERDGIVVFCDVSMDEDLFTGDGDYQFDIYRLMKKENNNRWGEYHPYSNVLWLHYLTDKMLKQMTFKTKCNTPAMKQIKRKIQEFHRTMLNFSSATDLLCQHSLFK
Description: as §1

TIE2 = biological target: T8, TIE2 (Homo sapiens, UniProt Q02763); assay: kinome screen (33PanQinase); type: biochemical
T8 construct: purchased Reaction Biology Europe GmbH (formerly ProQinase)
Description: as §1

BRSK1 = biological target: T9, BRSK1 (Homo sapiens, UniProt Q8TDC3); assay: kinome screen (33PanQinase); type: biochemical
T9 construct: purchased Reaction Biology Europe GmbH (formerly ProQinase)
T9 sequence (Q8TDC3 1-778): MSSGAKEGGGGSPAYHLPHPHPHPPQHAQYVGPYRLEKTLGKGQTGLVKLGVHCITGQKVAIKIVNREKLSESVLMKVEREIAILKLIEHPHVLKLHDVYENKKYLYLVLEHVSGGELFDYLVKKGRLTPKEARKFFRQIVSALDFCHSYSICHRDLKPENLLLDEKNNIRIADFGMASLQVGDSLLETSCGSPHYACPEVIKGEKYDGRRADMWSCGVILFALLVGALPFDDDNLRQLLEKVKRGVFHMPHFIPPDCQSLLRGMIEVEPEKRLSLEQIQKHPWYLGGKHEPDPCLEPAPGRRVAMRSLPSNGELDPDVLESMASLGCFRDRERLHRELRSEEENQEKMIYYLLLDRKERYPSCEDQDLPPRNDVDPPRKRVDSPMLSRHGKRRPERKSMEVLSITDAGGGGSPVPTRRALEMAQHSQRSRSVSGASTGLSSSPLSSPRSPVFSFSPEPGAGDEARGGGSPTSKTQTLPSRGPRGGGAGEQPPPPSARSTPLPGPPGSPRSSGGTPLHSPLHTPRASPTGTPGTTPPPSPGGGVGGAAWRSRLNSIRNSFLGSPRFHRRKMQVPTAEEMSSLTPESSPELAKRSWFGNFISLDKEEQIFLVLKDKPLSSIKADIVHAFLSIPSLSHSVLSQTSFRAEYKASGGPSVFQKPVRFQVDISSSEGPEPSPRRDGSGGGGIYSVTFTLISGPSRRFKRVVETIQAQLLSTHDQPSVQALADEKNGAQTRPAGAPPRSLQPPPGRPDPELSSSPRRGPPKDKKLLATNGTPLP
Description: as §1

PYK2 = biological target: T10, PYK2 (Homo sapiens, UniProt Q14289); assay: kinome screen (33PanQinase); type: biochemical
T10 construct: purchased Reaction Biology Europe GmbH (formerly ProQinase)
Description: as §1

CSF1R = biological target: T11, CSF1R (Homo sapiens, UniProt P07333); assay: kinome screen (33PanQinase); type: biochemical
T11 construct: purchased Reaction Biology Europe GmbH (formerly ProQinase)
Description: as §1

T10 sequence (Q14289 whole entry): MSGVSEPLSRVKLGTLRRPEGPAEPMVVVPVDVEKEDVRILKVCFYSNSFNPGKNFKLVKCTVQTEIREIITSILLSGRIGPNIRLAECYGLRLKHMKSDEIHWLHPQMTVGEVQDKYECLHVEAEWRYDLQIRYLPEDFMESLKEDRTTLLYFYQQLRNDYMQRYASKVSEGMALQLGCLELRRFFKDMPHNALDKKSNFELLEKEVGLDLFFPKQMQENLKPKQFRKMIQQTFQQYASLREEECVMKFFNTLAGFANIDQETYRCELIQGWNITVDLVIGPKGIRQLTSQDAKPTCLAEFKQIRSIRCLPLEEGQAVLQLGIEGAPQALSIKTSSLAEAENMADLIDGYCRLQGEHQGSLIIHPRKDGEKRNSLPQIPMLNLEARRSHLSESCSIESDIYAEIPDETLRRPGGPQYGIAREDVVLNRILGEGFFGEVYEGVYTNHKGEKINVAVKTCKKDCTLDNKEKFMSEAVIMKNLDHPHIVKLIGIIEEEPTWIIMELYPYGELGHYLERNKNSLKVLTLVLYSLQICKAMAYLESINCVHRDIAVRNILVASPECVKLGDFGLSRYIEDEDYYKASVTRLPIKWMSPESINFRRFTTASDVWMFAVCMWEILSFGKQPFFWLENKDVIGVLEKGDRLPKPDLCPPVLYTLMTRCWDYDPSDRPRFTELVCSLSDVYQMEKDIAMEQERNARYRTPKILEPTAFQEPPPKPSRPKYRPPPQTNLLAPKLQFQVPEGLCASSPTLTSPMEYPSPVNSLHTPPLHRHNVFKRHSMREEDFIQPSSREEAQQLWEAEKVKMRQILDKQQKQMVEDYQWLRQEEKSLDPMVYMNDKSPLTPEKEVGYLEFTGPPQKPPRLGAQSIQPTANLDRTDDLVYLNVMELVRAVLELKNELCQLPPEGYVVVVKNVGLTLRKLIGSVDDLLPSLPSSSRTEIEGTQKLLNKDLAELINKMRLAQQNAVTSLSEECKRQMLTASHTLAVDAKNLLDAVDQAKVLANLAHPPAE
T8 sequence (Q02763 23-1124): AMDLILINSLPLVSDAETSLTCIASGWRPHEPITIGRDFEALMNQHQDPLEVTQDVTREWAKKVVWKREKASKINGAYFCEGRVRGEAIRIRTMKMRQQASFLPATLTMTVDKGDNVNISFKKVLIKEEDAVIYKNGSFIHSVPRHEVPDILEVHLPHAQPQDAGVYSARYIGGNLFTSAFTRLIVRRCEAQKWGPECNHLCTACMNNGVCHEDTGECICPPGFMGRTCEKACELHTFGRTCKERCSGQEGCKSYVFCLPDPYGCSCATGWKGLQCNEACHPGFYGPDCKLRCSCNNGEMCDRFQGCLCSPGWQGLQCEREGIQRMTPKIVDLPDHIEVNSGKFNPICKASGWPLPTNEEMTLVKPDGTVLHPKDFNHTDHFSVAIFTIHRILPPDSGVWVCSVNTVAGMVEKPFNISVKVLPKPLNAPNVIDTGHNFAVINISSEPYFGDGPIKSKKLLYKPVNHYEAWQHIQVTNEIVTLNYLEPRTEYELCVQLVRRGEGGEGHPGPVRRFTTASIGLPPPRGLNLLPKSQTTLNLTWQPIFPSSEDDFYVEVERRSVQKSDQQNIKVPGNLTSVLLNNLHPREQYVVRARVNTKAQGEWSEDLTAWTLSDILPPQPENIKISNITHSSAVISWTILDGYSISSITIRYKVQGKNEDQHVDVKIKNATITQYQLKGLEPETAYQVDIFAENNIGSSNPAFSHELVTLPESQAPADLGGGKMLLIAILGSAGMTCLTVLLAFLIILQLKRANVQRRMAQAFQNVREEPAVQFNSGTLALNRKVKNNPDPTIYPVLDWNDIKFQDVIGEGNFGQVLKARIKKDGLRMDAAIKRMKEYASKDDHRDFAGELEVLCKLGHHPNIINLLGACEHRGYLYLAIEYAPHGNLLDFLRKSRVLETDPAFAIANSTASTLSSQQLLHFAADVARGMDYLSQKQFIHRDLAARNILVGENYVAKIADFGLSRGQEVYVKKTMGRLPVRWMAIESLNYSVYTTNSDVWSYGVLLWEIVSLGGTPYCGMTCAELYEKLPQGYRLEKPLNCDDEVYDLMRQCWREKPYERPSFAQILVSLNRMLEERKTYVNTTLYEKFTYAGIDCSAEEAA
T3 sequence (Q9Y3S1 whole entry): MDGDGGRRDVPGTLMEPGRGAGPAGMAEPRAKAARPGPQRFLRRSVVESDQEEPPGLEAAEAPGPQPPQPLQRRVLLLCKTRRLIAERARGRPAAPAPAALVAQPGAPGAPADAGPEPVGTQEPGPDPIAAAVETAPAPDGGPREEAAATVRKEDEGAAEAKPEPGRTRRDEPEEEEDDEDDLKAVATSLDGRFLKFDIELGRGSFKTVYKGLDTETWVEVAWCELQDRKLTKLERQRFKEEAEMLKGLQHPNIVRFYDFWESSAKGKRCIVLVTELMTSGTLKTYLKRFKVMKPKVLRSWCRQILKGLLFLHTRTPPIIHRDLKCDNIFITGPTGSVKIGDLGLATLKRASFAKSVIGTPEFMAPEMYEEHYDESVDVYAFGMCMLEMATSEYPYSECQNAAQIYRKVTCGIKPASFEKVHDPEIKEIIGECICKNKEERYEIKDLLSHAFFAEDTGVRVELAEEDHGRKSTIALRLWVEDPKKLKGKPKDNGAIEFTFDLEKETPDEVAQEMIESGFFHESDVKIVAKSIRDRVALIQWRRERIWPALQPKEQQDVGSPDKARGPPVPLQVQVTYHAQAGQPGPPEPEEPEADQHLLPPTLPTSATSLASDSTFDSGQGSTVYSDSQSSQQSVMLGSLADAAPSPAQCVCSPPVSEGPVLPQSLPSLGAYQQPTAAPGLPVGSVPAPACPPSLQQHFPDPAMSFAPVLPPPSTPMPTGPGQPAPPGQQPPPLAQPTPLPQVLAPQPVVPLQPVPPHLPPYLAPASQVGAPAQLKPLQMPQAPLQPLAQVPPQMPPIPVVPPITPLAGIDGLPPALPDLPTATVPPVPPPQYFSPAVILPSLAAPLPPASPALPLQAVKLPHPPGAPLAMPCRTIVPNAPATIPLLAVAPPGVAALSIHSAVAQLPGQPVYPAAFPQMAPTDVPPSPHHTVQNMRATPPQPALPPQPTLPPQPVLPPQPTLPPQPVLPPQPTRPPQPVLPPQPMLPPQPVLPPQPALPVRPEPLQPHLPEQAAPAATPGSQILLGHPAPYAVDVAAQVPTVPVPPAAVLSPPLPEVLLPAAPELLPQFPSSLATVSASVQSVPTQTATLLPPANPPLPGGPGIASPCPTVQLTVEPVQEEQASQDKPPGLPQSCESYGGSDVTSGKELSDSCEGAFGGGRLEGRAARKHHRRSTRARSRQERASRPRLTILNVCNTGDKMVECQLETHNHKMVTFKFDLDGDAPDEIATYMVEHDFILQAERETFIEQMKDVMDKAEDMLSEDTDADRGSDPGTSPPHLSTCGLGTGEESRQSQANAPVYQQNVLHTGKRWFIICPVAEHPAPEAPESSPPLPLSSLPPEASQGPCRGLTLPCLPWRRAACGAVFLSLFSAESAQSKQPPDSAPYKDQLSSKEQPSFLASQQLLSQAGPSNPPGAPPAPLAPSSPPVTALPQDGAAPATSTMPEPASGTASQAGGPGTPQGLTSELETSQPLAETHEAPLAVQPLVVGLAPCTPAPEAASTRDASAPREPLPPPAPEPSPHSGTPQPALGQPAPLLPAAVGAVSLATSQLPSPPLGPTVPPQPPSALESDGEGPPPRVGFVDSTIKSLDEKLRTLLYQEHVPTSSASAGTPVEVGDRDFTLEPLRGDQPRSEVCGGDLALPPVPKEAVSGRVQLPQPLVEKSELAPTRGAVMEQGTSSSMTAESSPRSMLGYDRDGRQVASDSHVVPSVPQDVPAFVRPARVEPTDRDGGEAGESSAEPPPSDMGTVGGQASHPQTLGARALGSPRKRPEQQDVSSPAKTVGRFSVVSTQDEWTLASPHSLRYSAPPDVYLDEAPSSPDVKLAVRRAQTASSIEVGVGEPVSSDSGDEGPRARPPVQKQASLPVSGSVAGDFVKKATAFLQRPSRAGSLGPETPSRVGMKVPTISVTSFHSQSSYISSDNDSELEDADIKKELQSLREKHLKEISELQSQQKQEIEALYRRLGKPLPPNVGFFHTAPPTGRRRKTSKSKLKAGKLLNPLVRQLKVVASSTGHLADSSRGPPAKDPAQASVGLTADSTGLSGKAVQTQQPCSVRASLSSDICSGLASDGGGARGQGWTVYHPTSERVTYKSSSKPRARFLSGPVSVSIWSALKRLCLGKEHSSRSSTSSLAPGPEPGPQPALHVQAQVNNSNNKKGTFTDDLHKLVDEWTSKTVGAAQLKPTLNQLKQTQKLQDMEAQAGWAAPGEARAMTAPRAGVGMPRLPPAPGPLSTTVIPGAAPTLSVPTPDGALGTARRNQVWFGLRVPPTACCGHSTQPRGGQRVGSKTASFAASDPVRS
T6 sequence (Q96SB4 whole entry): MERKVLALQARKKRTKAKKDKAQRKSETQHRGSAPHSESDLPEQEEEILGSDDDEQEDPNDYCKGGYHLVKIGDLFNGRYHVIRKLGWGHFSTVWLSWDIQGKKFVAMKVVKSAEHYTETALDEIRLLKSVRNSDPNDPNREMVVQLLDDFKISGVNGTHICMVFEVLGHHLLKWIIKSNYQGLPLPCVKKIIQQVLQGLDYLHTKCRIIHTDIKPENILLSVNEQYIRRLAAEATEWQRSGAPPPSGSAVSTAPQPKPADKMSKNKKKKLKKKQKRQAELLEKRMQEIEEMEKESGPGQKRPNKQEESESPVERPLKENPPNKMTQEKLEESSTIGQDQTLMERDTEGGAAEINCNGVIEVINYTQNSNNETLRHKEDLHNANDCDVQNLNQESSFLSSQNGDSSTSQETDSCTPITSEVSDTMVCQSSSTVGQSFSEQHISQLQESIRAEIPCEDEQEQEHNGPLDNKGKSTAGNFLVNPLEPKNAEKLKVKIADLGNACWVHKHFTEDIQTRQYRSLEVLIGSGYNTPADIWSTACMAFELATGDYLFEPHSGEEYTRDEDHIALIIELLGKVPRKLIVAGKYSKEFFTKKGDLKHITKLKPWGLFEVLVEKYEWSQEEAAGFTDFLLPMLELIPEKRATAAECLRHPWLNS

For `COc1ccnc2[nH]cc(-c3cc(N)nc(N)c3)c12` [meriolin 16], the IC50 [1] was 50 nM, the IC50 [2] was 2820 nM and the residual kinase activity (ACVR1; 0.03 µM) was 89 % of control. For the same compound, the residual kinase activity (ACVR1; 0.3 µM) was 72 % of control, the residual kinase activity (WNK3; 0.03 µM) was 85 % of control and the residual kinase activity (WNK3; 0.3 µM) was 85 % of control. The residual kinase activity (WNK2; 0.03 µM) was 99 % of control, the residual kinase activity (WNK2; 0.3 µM) was 86 % of control and the residual kinase activity (PAK7; 0.03 µM) was 89 % of control. The residual kinase activity (PAK7; 0.3 µM) was 81 % of control, the residual kinase activity (CK1γ1; 0.03 µM) was 87 % of control and the residual kinase activity (CK1γ1; 0.3 µM) was 38 % of control. For the same compound, the residual kinase activity (SRPK1; 0.03 µM) was 108 % of control, the residual kinase activity (SRPK1; 0.3 µM) was 99 % of control and the residual kinase activity (GSG2; 0.03 µM) was 2 % of control. For the same compound, the residual kinase activity (GSG2; 0.3 µM) was 0 % of control, the residual kinase activity (TIE2; 0.03 µM) was 132 % of control and the residual kinase activity (TIE2; 0.3 µM) was 105 % of control. For the same compound, the residual kinase activity (BRSK1; 0.03 µM) was 91 % of control, the residual kinase activity (BRSK1; 0.3 µM) was 97 % of control and the residual kinase activity (PYK2; 0.03 µM) was 117 % of control. For the same compound, the residual kinase activity (PYK2; 0.3 µM) was 102 % of control, the residual kinase activity (CSF1R; 0.03 µM) was 90 % of control and the residual kinase activity (CSF1R; 0.3 µM) was 88 % of control.

For `c1ccc(CNc2cc(-c3c[nH]c4ncccc34)ccn2)cc1` [meriolin 36], the IC50 [1] was 110 nM, the IC50 [2] was 100 nM and the residual kinase activity (ACVR1; 0.3 µM) was 24 % of control. The residual kinase activity (ACVR1; 3 µM) was 1 % of control, the residual kinase activity (WNK3; 0.3 µM) was 106 % of control and the residual kinase activity (WNK3; 3 µM) was 104 % of control. For the same compound, the residual kinase activity (WNK2; 0.3 µM) was 86 % of control, the residual kinase activity (WNK2; 3 µM) was 74 % of control and the residual kinase activity (PAK7; 0.3 µM) was 42 % of control. The residual kinase activity (PAK7; 3 µM) was 9 % of control, the residual kinase activity (CK1γ1; 0.3 µM) was 23 % of control and the residual kinase activity (CK1γ1; 3 µM) was 3 % of control. For the same compound, the residual kinase activity (SRPK1; 0.3 µM) was 110 % of control, the residual kinase activity (SRPK1; 3 µM) was 70 % of control and the residual kinase activity (GSG2; 0.3 µM) was 2 % of control. For the same compound, the residual kinase activity (GSG2; 3 µM) was 0 % of control, the residual kinase activity (TIE2; 0.3 µM) was 113 % of control and the residual kinase activity (TIE2; 3 µM) was 65 % of control. For the same compound, the residual kinase activity (BRSK1; 0.3 µM) was 89 % of control, the residual kinase activity (BRSK1; 3 µM) was 73 % of control and the residual kinase activity (PYK2; 0.3 µM) was 73 % of control. For the same compound, the residual kinase activity (PYK2; 3 µM) was 24 % of control, the residual kinase activity (CSF1R; 0.3 µM) was 33 % of control and the residual kinase activity (CSF1R; 3 µM) was 14 % of control.
